Assay results reported in US20230047788A1, “COMPOSITIONS COMPRISING 5-CHOLESTEN-3, 25-DIOL, 3-SULFATE (25HC3S) OR PHARMACEUTICALLY ACCEPTABLE SALT THEREOF AND AT LEAST ONE CYCLIC OLIGOSACCHARIDE” (Virginia Commonwealth University, priority 2016, published 2023).

Assay: Effect of phosphate and borate buffers on chemical stability (% remaining, impurity profile), osmolality, pH and appearance of 25HC3S 30 mg/mL in 250 mg/mL HPBCD at 80°C and 60°C
Assay type: physicochemical
Parameters: First Order Rate Constant: unit not given beside the values
Protocol: A total of six 25HC3S formulations at 30 mg/mL in 250 mg/mL of 2-hydroxypropyl beta cyclodextrin (HPBCD) containing 10, 20, 50 and 100 mM phosphate buffers at pH 7.5 to 8.1 and 10 and 50 mM borate buffers at pH 9.4 were prepared for the stability study. The chemical stability (measured as % remaining of 25HC3S) and physical stability (osmolality, pH and appearance) of the formulations were monitored under accelerated conditions for up to 7 days at 80° C. and up to 29 days at 60° C.
Two stock solutions of phosphate buffer at 100 and 200 mM at pH 7.4 and 7.3, respectively and one borate buffer at 100 mM at pH 9.3 were prepared (Tables 22A and 22B) and used for 250 mg/mL HPBCD vehicles preparation (Table 23).
Approximately 1200 mg each of 25HC3S was weighed into 40 mL volumetric flasks and diluted to volume with the six HPBCD vehicles containing 10-100 mM phosphate buffers or 10 and 50 mM borate buffers, respectively (Table 24). The final concentration of 25HC3S was 30 mg/mL (wt/volume, without adjusting for API purity). Aliquots of 2 mL of each formulation were filled into 2 mL glass vials, stoppered and sealed for stability sample set-up at 60° C. and 80° C. to study the effect of phosphate buffer (pH 7.5-8.1) and borate buffer (pH 9.4) at various buffer concentrations on the stability of the HPBCD formulations (Table 26).
A 0.5 mL of sample solution was transferred to a 25 mL volumetric flask and QS'ed with methanol/water=95/5 for 25HC3S concentration determination by HPLC. The % remaining of 25HC3S was calculated as follows: […]

[1] = 250 mg/mL HPBCD, 10 mM borate, 80°C, day 0
[2] = 250 mg/mL HPBCD, 10 mM borate, 80°C, day 1
[3] = 250 mg/mL HPBCD, 10 mM borate, 80°C, day 2
[4] = 250 mg/mL HPBCD, 10 mM borate, 80°C, day 3
[5] = 250 mg/mL HPBCD, 10 mM borate, 80°C, day 7
[6] = 250 mg/mL HPBCD, 10 mM borate, day 0
[7] = 250 mg/mL HPBCD, 10 mM phosphate, 80°C, day 0
[8] = 250 mg/mL HPBCD, 10 mM phosphate, 80°C, day 1
[9] = 250 mg/mL HPBCD, 10 mM phosphate, 80°C, day 2
[10] = 250 mg/mL HPBCD, 10 mM phosphate, 80°C, day 3
[11] = 250 mg/mL HPBCD, 10 mM phosphate, 80°C, day 7
[12] = 250 mg/mL HPBCD, 10 mM phosphate, day 0
[13] = 250 mg/mL HPBCD, 20 mM phosphate, 80°C, day 0
[14] = 250 mg/mL HPBCD, 20 mM phosphate, 80°C, day 1
[15] = 250 mg/mL HPBCD, 20 mM phosphate, 80°C, day 2
[16] = 250 mg/mL HPBCD, 20 mM phosphate, 80°C, day 3
[17] = 250 mg/mL HPBCD, 20 mM phosphate, 80°C, day 7
[18] = 250 mg/mL HPBCD, 20 mM phosphate, day 0
[19] = 250 mg/mL HPBCD, 50 mM borate, 80°C, day 0
[20] = 250 mg/mL HPBCD, 50 mM borate, 80°C, day 1
[21] = 250 mg/mL HPBCD, 50 mM borate, 80°C, day 2
[22] = 250 mg/mL HPBCD, 50 mM borate, 80°C, day 3
[23] = 250 mg/mL HPBCD, 50 mM borate, 80°C, day 7
[24] = 250 mg/mL HPBCD, 50 mM borate, day 0
[25] = 250 mg/mL HPBCD, 50 mM phosphate, 80°C, day 0
[26] = 250 mg/mL HPBCD, 50 mM phosphate, 80°C, day 1
[27] = 250 mg/mL HPBCD, 50 mM phosphate, 80°C, day 2
[28] = 250 mg/mL HPBCD, 50 mM phosphate, 80°C, day 3
[29] = 250 mg/mL HPBCD, 50 mM phosphate, 80°C, day 7
[30] = 250 mg/mL HPBCD, 50 mM phosphate, day 0
[31] = 250 mg/mL HPBCD, 100 mM phosphate, 80°C, day 0
[32] = 250 mg/mL HPBCD, 100 mM phosphate, 80°C, day 1
[33] = 250 mg/mL HPBCD, 100 mM phosphate, 80°C, day 2
[34] = 250 mg/mL HPBCD, 100 mM phosphate, 80°C, day 3
[35] = 250 mg/mL HPBCD, 100 mM phosphate, 80°C, day 7
[36] = 250 mg/mL HPBCD, 100 mM phosphate, day 0

## C[C@H](CCCC(C)(C)O)[C@H]1CC[C@H]2[C@@H]3CC=C4C[C@@H](OS(=O)(=O)[O-])CC[C@]4(C)[C@H]3CC[C@]12C.[Na+] [25HC3S, 5-cholesten-3, 25-diol, 3-sulfate]
10 mM borate, 80°C
  Calculated t90: 2.0 days
  First Order Rate Constant: −0.0463
  Intercept (first order fit of % remaining): 98.9
10 mM phosphate, 80°C
  Calculated t90: 2.3 days
  First Order Rate Constant: −0.0462
  Intercept (first order fit of % remaining): 99.9
20 mM phosphate, 80°C
  Calculated t90: 2.2 days
  First Order Rate Constant: −0.0437
  Intercept (first order fit of % remaining): 99.2
50 mM borate, 80°C
  Calculated t90: 1.9 days
  First Order Rate Constant: −0.0484
  Intercept (first order fit of % remaining): 98.8
50 mM phosphate, 80°C
  Calculated t90: 2.2 days
  First Order Rate Constant: −0.0451
  Intercept (first order fit of % remaining): 99.5
100 mM phosphate, 80°C
  Calculated t90: 2.2 days
  First Order Rate Constant: −0.0430
  Intercept (first order fit of % remaining): 99
250 mg/mL HPBCD, 10 mM borate, 60°C, 29 days
  pH: 8.90
[1]
  25HC3S concentration: 28.58 mg/mL
  % Remaining of 25HC3S: 100.0%
[2]
  25HC3S concentration: 26.90 mg/mL
  % Remaining of 25HC3S: 94.1%
  Osmolality: 318 mmol/kg
  pH: 9.12
[3]
  25HC3S concentration: 25.63 mg/mL
  % Remaining of 25HC3S: 89.7%
  Osmolality: 323 mmol/kg
  pH: 8.92
[4]
  25HC3S concentration: 24.40 mg/mL
  % Remaining of 25HC3S: 85.4%
  Osmolality: 328 mmol/kg
  pH: 8.60
[5]
  25HC3S concentration: 20.55 mg/mL
  % Remaining of 25HC3S: 71.9%
  Appearance: light brown
  Osmolality: 352 mmol/kg
  pH: 7.06
[6]
  Osmolality: 316 mmol/kg
  pH: 9.36
250 mg/mL HPBCD, 10 mM phosphate, 60°C, 29 days
  pH: 7.04
[7]
  25HC3S concentration: 28.45 mg/mL
  % Remaining of 25HC3S: 100.0%
[8]
  25HC3S concentration: 27.03 mg/mL
  % Remaining of 25HC3S: 95.0%
  Osmolality: 291 mmol/kg
  pH: 7.28
[9]
  25HC3S concentration: 26.00 mg/mL
  % Remaining of 25HC3S: 91.4%
  Osmolality: 286 mmol/kg
  pH: 6.82
[10]
  25HC3S concentration: 24.70 mg/mL
  % Remaining of 25HC3S: 86.8%
  Osmolality: 294 mmol/kg
  pH: 6.34
[11]
  25HC3S concentration: 20.58 mg/mL
  % Remaining of 25HC3S: 72.3%
  Osmolality: 300 mmol/kg
  pH: 2.67
[12]
  Osmolality: 273 mmol/kg
  pH: 8.09
250 mg/mL HPBCD, 20 mM phosphate, 60°C, 29 days
  pH: 7.17
[13]
  25HC3S concentration: 28.63 mg/mL
  % Remaining of 25HC3S: 100.0%
[14]
  25HC3S concentration: 27.03 mg/mL
  % Remaining of 25HC3S: 94.4%
  Osmolality: 325 mmol/kg
  pH: 7.35
[15]
  25HC3S concentration: 26.05 mg/mL
  % Remaining of 25HC3S: 91.0%
  Osmolality: 328 mmol/kg
  pH: 7.13
[16]
  25HC3S concentration: 24.70 mg/mL
  % Remaining of 25HC3S: 86.3%
  Osmolality: 328 mmol/kg
  pH: 6.80
[17]
  25HC3S concentration: 21.00 mg/mL
  % Remaining of 25HC3S: 73.3%
  Osmolality: 354 mmol/kg
  pH: 5.75
[18]
  Osmolality: 311 mmol/kg
  pH: 7.81
250 mg/mL HPBCD, 50 mM borate, 60°C, 29 days
  pH: 9.19
[19]
  25HC3S concentration: 28.50 mg/mL
  % Remaining of 25HC3S: 100.0%
[20]
  25HC3S concentration: 26.78 mg/mL
  % Remaining of 25HC3S: 94.0%
  Osmolality: 527 mmol/kg
  pH: 9.34
[21]
  25HC3S concentration: 25.45 mg/mL
  % Remaining of 25HC3S: 89.3%
  Osmolality: 534 mmol/kg
  pH: 9.28
[22]
  25HC3S concentration: 24.05 mg/mL
  % Remaining of 25HC3S: 84.4%
  Osmolality: 535 mmol/kg
  pH: 9.12
[23]
  25HC3S concentration: 20.20 mg/mL
  % Remaining of 25HC3S: 70.9%
  Appearance: brown clear solutions
  Osmolality: 569 mmol/kg
  pH: 8.92
[24]
  Osmolality: 524 mmol/kg
  pH: 9.40
250 mg/mL HPBCD, 50 mM phosphate, 60°C, 29 days
  pH: 7.28
[25]
  25HC3S concentration: 28.50 mg/mL
  % Remaining of 25HC3S: 100.0%
[26]
  25HC3S concentration: 27.13 mg/mL
  % Remaining of 25HC3S: 95.2%
  Osmolality: 427 mmol/kg
  pH: 7.42
[27]
  25HC3S concentration: 25.83 mg/mL
  % Remaining of 25HC3S: 90.6%
  Osmolality: 432 mmol/kg
  pH: 7.29
[28]
  25HC3S concentration: 24.65 mg/mL
  % Remaining of 25HC3S: 86.5%
  Osmolality: 423 mmol/kg
  pH: 7.08
[29]
  25HC3S concentration: 20.75 mg/mL
  % Remaining of 25HC3S: 72.8%
  Osmolality: 453 mmol/kg
  pH: 6.73
[30]
  Osmolality: 415 mmol/kg
  pH: 7.63
250 mg/mL HPBCD, 100 mM phosphate, 60°C, 29 days
  pH: 7.28
[31]
  25HC3S concentration: 28.58 mg/mL
  % Remaining of 25HC3S: 100.0%
[32]
  25HC3S concentration: 27.10 mg/mL
  % Remaining of 25HC3S: 94.8%
  Osmolality: 589 mmol/kg
  pH: 7.42
[33]
  25HC3S concentration: 25.83 mg/mL
  % Remaining of 25HC3S: 90.4%
  Osmolality: 585 mmol/kg
  pH: 7.33
[34]
  25HC3S concentration: 24.65 mg/mL
  % Remaining of 25HC3S: 86.2%
  Osmolality: 589 mmol/kg
  pH: 7.15
[35]
  25HC3S concentration: 21.05 mg/mL
  % Remaining of 25HC3S: 73.7%
  Appearance: brown clear solution
  Osmolality: 616 mmol/kg
  pH: 6.93
[36]
  Osmolality: 573 mmol/kg
  pH: 7.53
250 mg/mL HPBCD, 10, 20 and 50 mM phosphate, 80°C, up to 7 days
  Appearance: colorless clear solutions
10 or 50 mM borate formulations, 80°C up to 7 days
  appearance when removed from 80°C oven and cooled to room temperature: a white precipitate was observed
60° C., day 0, Borate 10 mM
  25HC3S: 28.58 mg/mL
  % Peak Area 25-Hydroxy Cholesterol at RRT = 3.67: 0.0 % Peak Area
  % Peak Area 25HC3S: 99.7 % Peak Area
  % Peak Area Major Thermal Degradant at RRT = 2.64: 0.3 % Peak Area
  % Remaining of 25HC3S: 100.0%
  Osmolality: 316 mmol/kg
  pH: 9.36
60° C., day 0, Borate 50 mM
  25HC3S: 28.50 mg/mL
  % Peak Area 25-Hydroxy Cholesterol at RRT = 3.67: 0.0 % Peak Area
  % Peak Area 25HC3S: 99.9 % Peak Area
  % Peak Area Major Thermal Degradant at RRT = 2.64: 0.2 % Peak Area
  % Remaining of 25HC3S: 100.0%
  Osmolality: 524 mmol/kg
